# According to US8652999B1, “Herbicidal compositions comprising 4-amino-3-chloro-5-fluoro-6-(4-chloro-2-fluoro-3-methoxyphenyl)pyridine-2-carboxylic acid or a derivative thereof and a sulfonylaminocarbonyltriazolinone” (Dow AgroSciences, LLC., priority 2012, dated 2014):
# Assays:
# Type in all cases: in vivo
# Details in all cases: foliar, 20-22 days
# [1] = system: Veronica persica (VERPE); experiment: Postemergence herbicidal activity, greenhouse, VERPE
# Method: (§1) Evaluation of Postemergence Herbicidal Activity of Mixtures in Cereal Crops
# (§2) Seeds of the desired test plant species were planted in Sun Gro MetroMix® 306 planting mixture, which typically has a pH of 6.0 to 6.8 and an organic matter content of about 30 percent, in plastic pots with a surface area of 103.2 square centimeters (cm^2). […] The plants were grown for 7-36 days in a greenhouse with an approximate 14 hour photoperiod which was maintained at about 18° C. during the day and 17° C. during the night. Nutrients and water were added on a regular basis and supplemental lighting was provided with overhead metal halide 1000-Watt lamps as necessary. The plants were employed for testing when they reached the second or third true leaf stage.
# (§3) Treatments consisted of the benzyl ester of the compound of formula (I) (Compound A as listed in Tables 1-8) and a second cereal herbicide alone and in combination. […] The concentrated stock solutions were diluted to 1.5 mg ai/mL with the addition of 2 volumes of an aqueous mixture containing acetone, water, isopropyl alcohol, DMSO, Agri-dex crop oil concentrate, and Triton® X-77 surfactant in a 64.7:26.0:6.7:2.0:0.7:0.01 v/v ratio. A dilution solution was prepared by mixing 1 volume of 97:3 v/v acetone/DMSO and 2 volumes of an aqueous mixture containing acetone, water, isopropyl alcohol, DMSO, Agri-dex crop oil concentrate, and Triton® X-77 surfactant in a 64.7:26.0:6.7:2.0:0.7:0.01 v/v ratio. Compound requirements are based upon a 12 mL application volume at a rate of 187 liters per hectare (L/ha). […] Formulated compounds were applied to the plant material with an overhead Mandel track sprayer equipped with 8002E nozzles calibrated to deliver 187 L/ha over an application area of 0.503 square meters (m^2) at a spray height of 18 inches (43 cm) above average plant canopy. Control plants were sprayed in the same manner with the solvent blank.
# (§4) The treated plants and control plants were placed in a greenhouse as described above and watered by sub-irrigation to prevent wash-off of the test compounds. After 20-22 days, the condition of the test plants as compared with that of the control plants was determined visually and scored on a scale of 0 to 100 percent where 0 corresponds to no injury and 100 corresponds to complete kill.
# (§5) Colby's equation was used to determine the herbicidal effects expected from the mixtures (Colby, S. R. 1967. Calculation of the synergistic and antagonistic response of herbicide combinations. Weeds 15:20-22.). Specifically, the following equation was used to calculate the expected activity of mixtures containing two active ingredients, A and B: Expected=A+B−(A×B/100) • A=observed efficacy of active ingredient A at the same concentration as used in the mixture. • B=observed efficacy of active ingredient B at the same concentration as used in the mixture.
# [2] = system: Stellaria media (STEME); experiment: Postemergence herbicidal activity, greenhouse, STEME
# Method: as §1, §2, §3, §4, §5
# [3] = system: Matricaria chamomila (MATCH); experiment: Postemergence herbicidal activity, greenhouse, MATCH
# Method: as §1, §2, §3, §4, §5
# [4] = system: Cirsium arvense (CIRAR); experiment: Postemergence herbicidal activity, greenhouse, CIRAR
# Method: as §1, §2, §3, §4, §5
# [5] = system: Alopecurus myosuroides (ALOMY); experiment: Postemergence herbicidal activity, greenhouse, ALOMY
# Method: as §1, §2, §3, §4, §5
# [6] = system: Apera spica-venti (APESV); experiment: Postemergence herbicidal activity, greenhouse, APESV
# Method: as §1, §2, §3, §4, §5
# [7] = system: Lolium multiflorum subsp. gaudini (LOLMG); experiment: Postemergence herbicidal activity, greenhouse, LOLMG
# Method: as §1, §2, §3, §4, §5
# [8] = system: Triticum aestivum (TRZAW); experiment: Postemergence herbicidal activity, greenhouse, TRZAW
# Method: as §1, §2, §3, §4, §5
# [9] = system: Papaver rhoeas (PAPRH); experiment: Postemergence herbicidal activity, greenhouse, PAPRH
# Method: as §1, §2, §3, §4, §5
# [10] = system: Salsola tragus (SASKR); experiment: Postemergence herbicidal activity, greenhouse, SASKR
# Method: as §1, §2, §3, §4, §5
# [11] = system: Viola tricolor (VIOTR); experiment: Postemergence herbicidal activity, greenhouse, VIOTR
# Method: as §1, §2, §3, §4, §5
# [12] = system: Lamium purpureum (LAMPU); experiment: Postemergence herbicidal activity, greenhouse, LAMPU
# Method: as §1, §2, §3, §4
# (§6) Colby's equation was used to determine the herbicidal effects expected from the mixtures (Colby, S. R. 1967. Calculation of the synergistic and antagonistic response of herbicide combinations. Weeds 15:20-22.). […]
# [13] = system: Setaria viridis (SETVI); experiment: Postemergence herbicidal activity, greenhouse, SETVI
# Method: as §1, §2, §3, §4, §6
# [14] = system: Kochia scoparia (KCHSC); experiment: Postemergence herbicidal activity, greenhouse, KCHSC
# Method: as §1, §2, §3, §4, §5
# [15] = system: Triticum aestivum (TRZAS); experiment: Postemergence herbicidal activity, greenhouse, TRZAS
# Method: as §1, §2
# (§7) Treatments consisted of the benzyl ester of the compound of formula (I) (Compound A as listed in Tables 1-8) and a second cereal herbicide alone and in combination. […]
# as §4, with “kill. […]” for “kill.”
# [16] = system: Hordeum vulgare (HORVS); experiment: Postemergence herbicidal activity, greenhouse, HORVS
# Method: as §1, §2, §7
# as §4, with “kill. […]” for “kill.”
# [17] = system: Galium aparine (GALAP); experiment: Postemergence herbicidal activity, greenhouse, GALAP
# Method: as §1, §2, §7
# as §4, with “kill. […]” for “kill.”
# [18] = system: Chenopodium album (CHEAL); experiment: Postemergence herbicidal activity, greenhouse, CHEAL
# Method: as §1, §2, §7
# as §4, with “kill. […]” for “kill.”
smiles,measurement,setting,value
"COc1c(Cl)ccc(-c2nc(C(=O)OCc3ccccc3)c(Cl)c(N)c2F)c1F [Compound A, benzyl ester of 4-amino-3-chloro-5-fluoro-6-(4-chloro-2-fluoro-3-methoxyphenyl)pyridine-2-carboxylic acid]",VERPE Obs,[1]; Compound A 5 g ai/ha,13%
same,VERPE Obs,[1]; Compound A 8.75 g/ha,50%
same,VERPE Obs,[1]; Compound A 10 g ai/ha,25%
same,STEME Obs,[2]; Compound A 5 g ai/ha,50%
same,STEME Obs,[2]; Compound A 8.75 g/ha,68%
same,STEME Obs,[2]; Compound A 10 g ai/ha,63%
same,MATCH Obs,[3]; Compound A 2.5 g ha,0%
same,MATCH Obs,[3]; Compound A 5 g ai/ha,20%
same,MATCH Obs,[3]; Compound A 5 g ha,10%
same,MATCH Obs,[3]; Compound A 8.75 g/ha,20%
same,MATCH Obs,[3]; Compound A 10 g ai/ha,40%
same,CIRAR Obs,[4]; Compound A 2.5 g ha,10%
same,CIRAR Obs,[4]; Compound A 5 g ha,20%
same,CIRAR Obs,[4]; Compound A 8.75 g/ha,40%
same,ALOMY Obs,[5]; Compound A 5 g ha,0%
same,ALOMY Obs,[5]; Compound A 5 g/ha,0%
same,ALOMY Obs,[5]; Compound A 10 g ha,0%
same,ALOMY Obs,[5]; Compound A 10 g/ha,0%
same,APESV Obs,[6]; Compound A 5 g ha,0%
same,APESV Obs,[6]; Compound A 5 g/ha,0%
same,APESV Obs,[6]; Compound A 10 g ha,0%
same,APESV Obs,[6]; Compound A 10 g/ha,0%
same,LOLMG Obs,[7]; Compound A 5 g ha,0%
same,LOLMG Obs,[7]; Compound A 5 g/ha,0%
same,LOLMG Obs,[7]; Compound A 10 g ha,0%
same,LOLMG Obs,[7]; Compound A 10 g/ha,0%
same,TRZAW Obs,[8]; Compound A 5 g ai/ha,7%
same,TRZAW Obs,[8]; Compound A 10 g ai/ha,7%
same,PAPRH Obs,[9]; Compound A 5 g ai/ha,46%
same,PAPRH Obs,[9]; Compound A 10 g ai/ha,48%
same,SASKR Obs,[10]; Compound A 2.5 g ha,10%
same,SASKR Obs,[10]; Compound A 5 g ai/ha,75%
same,SASKR Obs,[10]; Compound A 5 g ha,60%
same,SASKR Obs,[10]; Compound A 10 g ai/ha,78%
same,VIOTR Obs,[11]; Compound A 2.5 g ha,10%
same,VIOTR Obs,[11]; Compound A 5 g ai/ha,27%
same,VIOTR Obs,[11]; Compound A 5 g ha,10%
same,VIOTR Obs,[11]; Compound A 10 g ai/ha,37%
same,LAMPU Obs,[12]; Compound A 2.5 g ha,80%
same,LAMPU Obs,[12]; Compound A 5 g ha,80%
same,LAMPU Obs,[12]; Compound A 8.75 g/ha,83%
same,SETVI Obs,[13]; Compound A 5 g ha,0%
same,SETVI Obs,[13]; Compound A 10 g ha,0%
same,KCHSC Obs,[14]; Compound A 2.5 g ha,20%
same,KCHSC Obs,[14]; Compound A 5 g ai/ha,60%
same,KCHSC Obs,[14]; Compound A 5 g ha,40%
same,KCHSC Obs,[14]; Compound A 10 g ai/ha,57%
same,TRZAS Obs,[15]; Compound A 2.5 g ha,0%
same,TRZAS Obs,[15]; Compound A 5 g ha,5%
same,HORVS Obs,[16]; Compound A 2.5 g ha,0%
same,HORVS Obs,[16]; Compound A 5 g ha,0%
same,GALAP Obs,[17]; Compound A 2.5 g ha,60%
same,GALAP Obs,[17]; Compound A 5 g ha,60%
same,CHEAL Obs,[18]; Compound A 2.5 g ha,50%
same,CHEAL Obs,[18]; Compound A 5 g ha,60%
